Source: US20110262368A1, “C21 THIOETHERS AS GLUCOCORTICOID RECEPTOR AGONISTS” (Schering Corporation, priority 2007, published 2011)
Like-named read-outs stand apart in the source and are kept apart here.

Experiments:
[1] = system: Male Brown Norway Rats; settings: rat, in vivo, ip, 2 days
[2] = cited from earlier work

C[C@@H]1CC2C3CCC4=CC(=O)C=CC4(C)[C@@]3(F)[C@@H](O)CC2(C)[C@@]1(O)C(=O)CSc1nc2ccccc2s1 (stereo partly drawn) [US′120]
% Thymus Involution ([1]; 10 mg/kg): 62 ± 3%

CC12CCC(=O)C=C1CCC1C2[C@@H](O)CC2(C)C1CC[C@]2(O)C(=O)CSc1nc2ccccc2s1 (stereo partly drawn) [Inventive Compound A]
% Thymus Involution ([1]; 30 mg/kg): −4 ± 7%

Oc1cccc(Nc2ncc(F)c(Nc3cccc(O)c3)n2)c1 [Example R112]
improvement from baseline measurements of symptoms associated with chronic nasal congestion ([2]; from baseline (prior to drug initiation)): up to 38% | absolute difference over placebo, symptoms associated with chronic nasal congestion ([2]; versus placebo, absolute): 9% | relative improvement over placebo, symptoms associated with chronic nasal congestion ([2]; versus placebo, relative): greater than 20%

CC12C[C@H](O)[C@@]3(F)C(CCC4=CC(=O)CCC43C)C1CC[C@]2(O)C(=O)CSc1nc2ccccc2s1 (stereo partly drawn) [Inventive Compound B]
% Thymus Involution ([1]; 30 mg/kg): 10 ± 4%
